One assay has as its system HCT116 cells. The experiment in a line: In vitro cytotoxicity measured by the cell colony formation assay. The format is cell-based. The settings on record: HCT116 cells, 72 h incubation with drug, colonies counted after 7 days; ID50 = drug concentration producing 50% inhibition of colony formation; read-out: IN VITRO ID 50 (nm) HCT116. The essentials:
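Colony-forming survival was scored 7 days after a 72 h, 37 °C compound exposure followed by washout into fresh medium.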
For `CCOC(=O)O[C@H]1C(=O)[C@@]2(C)C([C@H](OC(=O)c3ccccc3)[C@]3(O)C[C@H](OC(=O)[C@H](O)[C@@H](NC(=O)c4ccccc4)c4cccs4)C(C)=C1C3(C)C)[C@]1(OC(C)=O)CO[C@@H]1C[C@@H]2O` (stereo partly drawn) [Compound 2972], the IC50 is less than 10 nM.

`CCOC(=O)N[C@@H](c1cccs1)[C@@H](O)C(=O)O[C@H]1C[C@@]2(O)[C@@H](OC(=O)c3ccccc3)C3[C@](C)(C(=O)[C@H](OC(=O)OCC)C(=C1C)C2(C)C)[C@@H](O)C[C@H]1OC[C@@]31OC(C)=O` (stereo partly drawn) [Compound 2988]: the IC50 is less than 1 nM.

As to `CCOC(=O)O[C@H]1C(=O)[C@@]2(C)C([C@H](OC(=O)c3ccccc3)[C@]3(O)C[C@H](OC(=O)[C@H](O)[C@@H](NC(=O)OC(C)C)c4cccs4)C(C)=C1C3(C)C)[C@]1(OC(C)=O)CO[C@@H]1C[C@@H]2O` (stereo partly drawn) [Compound 2999], the IC50 is less than 1 nM.

For the compound `CCOC(=O)O[C@H]1C(=O)[C@@]2(C)C([C@H](OC(=O)c3ccccc3)[C@]3(O)C[C@H](OC(=O)[C@H](O)[C@@H](NC(=O)OCC(C)C)c4cccs4)C(C)=C1C3(C)C)[C@]1(OC(C)=O)CO[C@@H]1C[C@@H]2O` (stereo partly drawn) [Compound 3003], the IC50 was less than 10 nM.

In the case of `CCOC(=O)O[C@H]1C(=O)[C@@]2(C)C([C@H](OC(=O)c3ccccc3)[C@]3(O)C[C@H](OC(=O)[C@H](O)[C@@H](NC(=O)c4ccco4)c4cccs4)C(C)=C1C3(C)C)[C@]1(OC(C)=O)CO[C@@H]1C[C@@H]2O` (stereo partly drawn) [Compound 3011], the IC50 is less than 1 nM.

`CCOC(=O)O[C@H]1C(=O)[C@@]2(C)C([C@H](OC(=O)c3ccccc3)[C@]3(O)C[C@H](OC(=O)[C@H](O)[C@@H](NC(=O)c4cccs4)c4cccs4)C(C)=C1C3(C)C)[C@]1(OC(C)=O)CO[C@@H]1C[C@@H]2O` (stereo partly drawn) [Compound 3020]: the IC50 is less than 1 nM.

For `CCCC(=O)N[C@@H](c1cccs1)[C@@H](O)C(=O)O[C@H]1C[C@@]2(O)[C@@H](OC(=O)c3ccccc3)C3[C@](C)(C(=O)[C@H](OC(=O)OCC)C(=C1C)C2(C)C)[C@@H](O)C[C@H]1OC[C@@]31OC(C)=O` (stereo partly drawn) [Compound 3155], the IC50 is less than 1 nM.

As for `CCOC(=O)O[C@H]1C(=O)[C@@]2(C)C([C@H](OC(=O)c3ccccc3)[C@]3(O)C[C@H](OC(=O)[C@H](O)[C@@H](NC(=O)OCC(C)C)c4ccco4)C(C)=C1C3(C)C)[C@]1(OC(C)=O)CO[C@@H]1C[C@@H]2O` (stereo partly drawn) [Compound 3181], the IC50 is less than 1 nM.

Turning to `C/C=C/C(=O)N[C@@H](c1cccs1)[C@@H](O)C(=O)O[C@H]1C[C@@]2(O)[C@@H](OC(=O)c3ccccc3)C3[C@](C)(C(=O)[C@H](OC(=O)OCC)C(=C1C)C2(C)C)[C@@H](O)C[C@H]1OC[C@@]31OC(C)=O` (stereo partly drawn) [Compound 3243], the IC50 was less than 1 nM.

Turning to `CCOC(=O)O[C@H]1C(=O)[C@@]2(C)C([C@H](OC(=O)c3ccccc3)[C@]3(O)C[C@H](OC(=O)[C@H](O)[C@@H](NC(=O)c4cccnc4)c4cccs4)C(C)=C1C3(C)C)[C@]1(OC(C)=O)CO[C@@H]1C[C@@H]2O` (stereo partly drawn) [Compound 3300], the IC50 is less than 10 nM.

Still in this assay, the particulars now being: HCT116 colony formation; 72 h drug incubation, colonies counted after 7 days; Example 5, C-7 ester/C-10 hydroxy taxanes; read-out: IN VITRO ID 50 (nm) HCT116.
For the compound `CCC(=O)O[C@H]1C[C@H]2OC[C@@]2(OC(C)=O)C2[C@H](OC(=O)c3ccccc3)[C@]3(O)C[C@H](OC(=O)[C@H](O)[C@@H](NC(=O)c4ccco4)c4cccs4)C(C)=C([C@@H](O)C(=O)[C@@]21C)C3(C)C` (stereo partly drawn) [Compound 3069], the IC50 is less than 1 nM.

With `CCC(=O)O[C@H]1C[C@H]2OC[C@@]2(OC(C)=O)C2[C@H](OC(=O)c3ccccc3)[C@]3(O)C[C@H](OC(=O)[C@H](O)[C@@H](NC(=O)OC(C)C)c4cccs4)C(C)=C([C@@H](O)C(=O)[C@@]21C)C3(C)C` (stereo partly drawn) [Compound 3082], the IC50 is less than 1 nM.

On to `CCCC(=O)N[C@@H](c1ccco1)[C@@H](O)C(=O)O[C@H]1C[C@@]2(O)[C@@H](OC(=O)c3ccccc3)C3[C@](C)(C(=O)[C@H](O)C(=C1C)C2(C)C)[C@@H](OC(=O)CC)C[C@H]1OC[C@@]31OC(C)=O` (stereo partly drawn) [Compound 3171], for which the IC50 was less than 1 nM.

In the case of `CCC(=O)O[C@H]1C[C@H]2OC[C@@]2(OC(C)=O)C2[C@H](OC(=O)c3ccccc3)[C@]3(O)C[C@H](OC(=O)[C@H](O)[C@@H](NC(=O)OCC(C)C)c4ccco4)C(C)=C([C@@H](O)C(=O)[C@@]21C)C3(C)C` (stereo partly drawn) [Compound 3196], the IC50 was less than 10 nM.

With `CCC(=O)O[C@H]1C[C@H]2OC[C@@]2(OC(C)=O)C2[C@H](OC(=O)c3ccccc3)[C@]3(O)C[C@H](OC(=O)[C@H](O)[C@@H](NC(=O)OCC(C)C)c4cccs4)C(C)=C([C@@H](O)C(=O)[C@@]21C)C3(C)C` (stereo partly drawn) [Compound 3232], the IC50 was less than 1 nM.

Staying with this assay, now noted: HCT116 colony formation; 72 h drug incubation, colonies counted after 7 days; Example 10, C-10 ester/C-7 hydroxy taxanes; read-out: IN VITRO ID 50 (nm) HCT116.
As to `CC(=O)O[C@@]12CO[C@@H]1C[C@H](O)[C@@]1(C)C(=O)[C@H](OC(=O)C3CC3)C3=C(C)[C@@H](OC(=O)[C@H](O)[C@@H](NC(=O)c4ccccc4)c4ccsc4)C[C@@](O)([C@@H](OC(=O)c4ccccc4)C12)C3(C)C` (stereo partly drawn) [Compound 2838], the IC50 is less than 1 nM.

On to `CC(=O)O[C@@]12CO[C@@H]1C[C@H](O)[C@@]1(C)C(=O)[C@H](OC(=O)C3CC3)C3=C(C)[C@@H](OC(=O)[C@H](O)[C@@H](NC(=O)c4ccccc4)c4ccccn4)C[C@@](O)([C@@H](OC(=O)c4ccccc4)C12)C3(C)C` (stereo partly drawn) [Compound 2844], for which the IC50 was less than 10 nM.

`CC(=O)O[C@@]12CO[C@@H]1C[C@H](O)[C@@]1(C)C(=O)[C@H](OC(=O)C3CC3)C3=C(C)[C@@H](OC(=O)[C@H](O)[C@@H](NC(=O)c4ccccc4)c4ccncc4)C[C@@](O)([C@@H](OC(=O)c4ccccc4)C12)C3(C)C` (stereo partly drawn) [Compound 2855]: the IC50 is less than 1 nM.

As to `CC(=O)O[C@@]12CO[C@@H]1C[C@H](O)[C@@]1(C)C(=O)[C@H](OC(=O)C3CC3)C3=C(C)[C@@H](OC(=O)[C@H](O)[C@@H](NC(=O)c4ccccc4)c4ccc([N+](=O)[O-])cc4)C[C@@](O)([C@@H](OC(=O)c4ccccc4)C12)C3(C)C` (stereo partly drawn) [Compound 2869], the IC50 was less than 10 nM.

Consider `CCC(=O)O[C@H]1C(=O)[C@@]2(C)C([C@H](OC(=O)c3ccccc3)[C@]3(O)C[C@H](OC(=O)[C@H](O)[C@@H](NC(=O)c4ccco4)c4cccs4)C(C)=C1C3(C)C)[C@]1(OC(C)=O)CO[C@@H]1C[C@@H]2O` (stereo partly drawn) [Compound 3053], for which the IC50 is less than 1 nM.

Consider `CC(=O)O[C@@]12CO[C@@H]1C[C@H](O)[C@@]1(C)C(=O)[C@H](OC(=O)C3CC3)C3=C(C)[C@@H](OC(=O)[C@H](O)[C@@H](NC(=O)OC(C)C)c4cccs4)C[C@@](O)([C@@H](OC(=O)c4ccccc4)C12)C3(C)C` (stereo partly drawn) [Compound 3071], for which the IC50 was less than 1 nM.

On to `CC(=O)O[C@@]12CO[C@@H]1C[C@H](O)[C@@]1(C)C(=O)[C@H](OC(=O)C3CC3)C3=C(C)[C@@H](OC(=O)[C@H](O)[C@@H](NC(=O)OCC(C)C)c4ccco4)C[C@@](O)([C@@H](OC(=O)c4ccccc4)C12)C3(C)C` (stereo partly drawn) [Compound 3102], for which the IC50 was less than 1 nM.

Regarding `CCCC(=O)O[C@H]1C(=O)[C@@]2(C)C([C@H](OC(=O)c3ccccc3)[C@]3(O)C[C@H](OC(=O)[C@H](O)[C@@H](NC(=O)OCC(C)C)c4ccco4)C(C)=C1C3(C)C)[C@]1(OC(C)=O)CO[C@@H]1C[C@@H]2O` (stereo partly drawn) [Compound 3110], the IC50 is less than 1 nM.

For `CC(=O)O[C@@]12CO[C@@H]1C[C@H](O)[C@@]1(C)C(=O)[C@H](OC(=O)C3CC3)C3=C(C)[C@@H](OC(=O)[C@H](O)[C@@H](NC(=O)OCC(C)C)c4cccs4)C[C@@](O)([C@@H](OC(=O)c4ccccc4)C12)C3(C)C` (stereo partly drawn) [Compound 3129], the IC50 is less than 10 nM.

On to `CCCC(=O)N[C@@H](c1cccs1)[C@@H](O)C(=O)O[C@H]1C[C@@]2(O)[C@@H](OC(=O)c3ccccc3)C3[C@](C)(C(=O)[C@H](OC(=O)C4CC4)C(=C1C)C2(C)C)[C@@H](O)C[C@H]1OC[C@@]31OC(C)=O` (stereo partly drawn) [Compound 3132], for which the IC50 was less than 1 nM.

In the case of `CCCC(=O)N[C@@H](c1cccs1)[C@@H](O)C(=O)O[C@H]1C[C@@]2(O)[C@@H](OC(=O)c3ccccc3)C3[C@](C)(C(=O)[C@H](OC(=O)CCC)C(=C1C)C2(C)C)[C@@H](O)C[C@H]1OC[C@@]31OC(C)=O` (stereo partly drawn) [Compound 3148], the IC50 was less than 1 nM.

On to `CCC(=O)O[C@H]1C(=O)[C@@]2(C)C([C@H](OC(=O)c3ccccc3)[C@]3(O)C[C@H](OC(=O)[C@H](O)[C@@H](NC(=O)OCC(C)C)c4cccs4)C(C)=C1C3(C)C)[C@]1(OC(C)=O)CO[C@@H]1C[C@@H]2O` (stereo partly drawn) [Compound 3163], for which the IC50 was less than 1 nM.

`CCCC(=O)O[C@H]1C(=O)[C@@]2(C)C([C@H](OC(=O)c3ccccc3)[C@]3(O)C[C@H](OC(=O)[C@H](O)[C@@H](NC(=O)c4ccccc4)c4ccco4)C(C)=C1C3(C)C)[C@]1(OC(C)=O)CO[C@@H]1C[C@@H]2O` (stereo partly drawn) [Compound 3204]: the IC50 was less than 1 nM.

Take `CCCC(=O)N[C@@H](c1ccco1)[C@@H](O)C(=O)O[C@H]1C[C@@]2(O)[C@@H](OC(=O)c3ccccc3)C3[C@](C)(C(=O)[C@H](OC(=O)CC)C(=C1C)C2(C)C)[C@@H](O)C[C@H]1OC[C@@]31OC(C)=O` (stereo partly drawn) [Compound 3219]: the IC50 was less than 1 nM.

Consider `CCCC(=O)N[C@@H](c1ccco1)[C@@H](O)C(=O)O[C@H]1C[C@@]2(O)[C@@H](OC(=O)c3ccccc3)C3[C@](C)(C(=O)[C@H](OC(=O)CCC)C(=C1C)C2(C)C)[C@@H](O)C[C@H]1OC[C@@]31OC(C)=O` (stereo partly drawn) [Compound 3222], for which the IC50 was less than 1 nM.

Consider `CCCC(=O)O[C@H]1C(=O)[C@@]2(C)C([C@H](OC(=O)c3ccccc3)[C@]3(O)C[C@H](OC(=O)[C@H](O)[C@@H](NC(=O)c4ccccc4)c4cccs4)C(C)=C1C3(C)C)[C@]1(OC(C)=O)CO[C@@H]1C[C@@H]2O` (stereo partly drawn) [Compound 3258], for which the IC50 was less than 1 nM.

As for `CCCC(=O)O[C@H]1C(=O)[C@@]2(C)C([C@H](OC(=O)c3ccccc3)[C@]3(O)C[C@H](OC(=O)[C@H](O)[C@@H](NC(=O)OCC(C)C)c4cccs4)C(C)=C1C3(C)C)[C@]1(OC(C)=O)CO[C@@H]1C[C@@H]2O` (stereo partly drawn) [Compound 3265], the IC50 is less than 10 nM.

With `CC(=O)O[C@@]12CO[C@@H]1C[C@H](O)[C@@]1(C)C(=O)[C@H](OC(=O)C3CC3)C3=C(C)[C@@H](OC(=O)[C@H](O)[C@@H](NC(=O)c4ccco4)c4cccs4)C[C@@](O)([C@@H](OC(=O)c4ccccc4)C12)C3(C)C` (stereo partly drawn) [Compound 3297], the IC50 was less than 1 nM.

The values are drawn from US6638973B2, “Taxane formulations” (FSU Research Foundation, Inc., priority 2000, dated 2003).
